# Key:
# Type in all cases: cell-based
# [1] = test system: Cerebral cortex neurons derived from human iPS cells; assay: Neural activity propagation in neural network of nerve cell device on MEA (4-AP)
# Description: FIG. 3 is a diagram showing the results of measuring by MEA (16 channels) the effect of 4-aminopyridines (4-AP) on the propagation speed of action potential in a neural network included in a nerve cell device. (A) is a raster plot diagram of the electrical signal measured by MEA after the addition of DMSO (upper figure) or 4-AP (lower figure). (B) is a diagram showing the results of measuring the time taken by the action potential in a neural network from the channel number 1 of the MEA to the channel number 16 (the channel at the diagonal of the MEA) after the addition of 4-AP (0.3, 1, and 3 μM) or DMSO and before the addition of the drug. The results are relative values in which the action potential arrival time in case of before the addition of the drug is taken as 100, and indicated by the average ±standard error (n=4). The decrease in the relative value of arrival time of action potential indicates an increase in the propagation speed of the action potential.
# An oriented PS fiber sheet obtained by mounting a stainless steel circular frame produced in Example 1 was hydrophilized by plasma treatment using a desktop plasma treatment apparatus (STREX Inc.), and then coated with poly-D-lysine and laminin. […] The nerve action potential and the propagation direction of the neural activity were measured. […]
# [2] = test system: spinal motion neuron derived from human iPS cells
# [3] = test system: Cerebral cortex neurons derived from human iPS cells; assay: Neural activity propagation in neural network of nerve cell device on MEA (picrotoxin), cerebral cortex neurons; conditions: picrotoxin 0.1-10 μm; cerebral cortex neurons seeded at 8×10^5 or 24×10^5 cells/cm^2; relative to vehicle (DMSO)
# Description: (§1) FIG. 4 is a diagram showing the results obtained by measuring the effect of picrotoxin by changing its concentration on the propagation speed of action potential in a neural network included in a nerve cell device having a different cell seeding density. As nerve cells, XCL-1 neurons (Xcell Science, US) were seeded at density of 3×10^5 cells/cm^2 (A) and 9×10^5 cells/cm^2 (B) or cerebral cortex neurons derived from human iPS cells (Axol Bioscience, UK) were seeded at density of 8x10^5 cells/cm^2 (C) and 24×10^5 cells/cm^2 (D) and cultured for 6 weeks. The concentrations of picrotoxin were 0.1, 0.3, 1, 3 and 10 μM. The results are relative values in which the propagation speed of action potential in case of the addition of vehicle (DMSO, a solvent in the drug) is taken as 100, and indicated by the average ±standard error (A, n=3; B, n=6; C, n=2; D, n=4).
# (§2) An oriented PS fiber sheet obtained by mounting a stainless steel circular frame produced in Example 1 was hydrophilized by plasma treatment using a desktop plasma treatment apparatus (STREX Inc.), and then coated with poly-D-lysine and laminin. […] The nerve action potential was determined.
# [4] = test system: Nerve cells derived from human iPS cells (XCL-1 neuron); assay: Neural activity propagation in neural network of nerve cell device on MEA (picrotoxin), XCL-1 neurons; conditions: picrotoxin 0.1-10 μm; XCL-1 neurons seeded at 3×10^5 or 9×10^5 cells/cm^2; relative to vehicle (DMSO)
# Description: as §1, §2
compound,measurement,setting,value
"Nc1ccncc1 [4-AP, 4-aminopyridin]",propagation speed of neural activity,"[1]; 4-AP 3 μM, channel 1 to channel 16 of MEA, DMSO 0.14 m/sec",0.39 m/sec
same,"propagation speed of neural activity, concentration dependence (relative action potential arrival time)","[1]; 4-AP 0.3, 1 and 3 μM, n=4",increase dependently with the concentration of 4-AP
"NC1=N[C@H](O)[C@H]2[C@H]3O[C@]4(O)O[C@@H]([C@@H](O)[C@@]2(N1)[C@@H]4O)[C@]3(O)CO [TTX, tetrodotoxin]",peak time of action potential,[2],delayed
picrotoxin,"propagation speed of action potential, concentration dependence",[3],an increase in propagation speed of a concentration-dependent action potential was observed
same,"propagation speed of action potential, concentration dependence",[4],an increase in propagation speed of a concentration-dependent action potential was observed
